Source: patent US8367715B2, “Pyrazole derivatives, preparation thereof, and therapeutic use thereof” (priority 2009, dated 2013)
pIC50: −log10 of the molar value.

How the values were obtained:
B16 melanoma = assay: In vivo antitumour activity against B16 melanoma grafted subcutaneously in mice, oral administration; settings: for T − C in days 750 mg: tumours reaching 750 mg
From the text: This activity of the compounds of the invention on […] tumours was studied on the B16 melanoma. […]
A product is considered to be active if log10 cell kill is greater than or equal to 0.7. A product is considered to be very active if log10 cell kill is greater than 2.8.
The animals bearing the tumours are randomized before being subjected to the various treatments and controls. In the case of treatment of tumours of the present invention, the treatment was started at an early stage, 3 to 4 days after implantation. […]
The tumours are measured two or three times a week until the tumour reaches approximately 2 g or until the death of the animal if the latter occurs before the tumour reaches 2 g. The animals are autopsied at the time of sacrifice.
The antitumour activity is determined according to the various parameters recorded.

human hepatocytes = assay: Intrinsic clearance using human hepatocytes; assay type: in vitro ADME; settings: for intrinsic clearance value: 5 μM, 0-24 hours; for inter-individual variability of intrinsic clearance: cryopreserved and fresh donor preparations
Procedure: Evaluation of the intrinsic clearance of the compounds using human hepatocytes: experimental protocol.
NB: The in vitro test described below on human liver cells is used to predict an important pharmacokinetic parameter: the metabolization by the liver for a given compound when it is administered to man.
Incubations of cryopreserved preparations of human hepatocytes (from IVT: IVT-TLN-180608 from In Vitro Technologies, inc. Baltimore, Md., USA) and fresh preparations of human hepatocytes (from Biopredic: HEP200239) were carried out in plates comprising 48 collagen-coated wells.
The kinetics were initiated by the addition, to the culture medium, of the compounds at a final concentration of 5 μM, in the absence or in the presence of 10 μM ketoconazole (CYP3A4 inhibitor). The incubation volume is 100 μl, the incubation time: 0-24 hours (standard kinetic points: 0-0.5-1-2-4-6-8-24 hours).
The kinetics were stopped by addition of acetonitrile/water, with corticosterone, as an internal standard. The cells were detached then lysed. The intracellular and extracellular media were recombined and frozen (−20° C.) in order to be stored until the LC-MS/MS analysis.
The combined extracellular and intracellular media were defrosted, submitted to ultrasound action, agitated with a vortex and centrifuged at 3000 g for 20 minutes. The supernatants were injected and analysed by LC-MS/MS.
The maximum initial in vitro rate was calculated for the specific metabolites of the P450 cytochromes and expressed in nmol/hour/million of cells. V=[concentration at T(n)−concentration at T(n−1)]/[T(n)−T(n−1)]
The intrinsic clearance was determined and expressed in ml/hour/million of cells Clint=dose/AUC0-24 h Dose=amount at T(0)(nmol/million of cells)
AUC0-24 h: calculated by WinNonlin, with a non-compartmental analysis modeling an intravenous injection of bolus type
From IVT: ● IVT, TLN group: person
From Biopredic: ● HEP200239: person, unknown

FLT1 = FLT1 (Homo sapiens, UniProt P17948); assay: FLT1 kinase phosphorylation activity by radioactive labeling; assay type: biochemical; settings: read-out: FLT1, concentration that inhibits 50% of the kinase activity
Sequence of FLT1 (P17948 27-1338, species assumed): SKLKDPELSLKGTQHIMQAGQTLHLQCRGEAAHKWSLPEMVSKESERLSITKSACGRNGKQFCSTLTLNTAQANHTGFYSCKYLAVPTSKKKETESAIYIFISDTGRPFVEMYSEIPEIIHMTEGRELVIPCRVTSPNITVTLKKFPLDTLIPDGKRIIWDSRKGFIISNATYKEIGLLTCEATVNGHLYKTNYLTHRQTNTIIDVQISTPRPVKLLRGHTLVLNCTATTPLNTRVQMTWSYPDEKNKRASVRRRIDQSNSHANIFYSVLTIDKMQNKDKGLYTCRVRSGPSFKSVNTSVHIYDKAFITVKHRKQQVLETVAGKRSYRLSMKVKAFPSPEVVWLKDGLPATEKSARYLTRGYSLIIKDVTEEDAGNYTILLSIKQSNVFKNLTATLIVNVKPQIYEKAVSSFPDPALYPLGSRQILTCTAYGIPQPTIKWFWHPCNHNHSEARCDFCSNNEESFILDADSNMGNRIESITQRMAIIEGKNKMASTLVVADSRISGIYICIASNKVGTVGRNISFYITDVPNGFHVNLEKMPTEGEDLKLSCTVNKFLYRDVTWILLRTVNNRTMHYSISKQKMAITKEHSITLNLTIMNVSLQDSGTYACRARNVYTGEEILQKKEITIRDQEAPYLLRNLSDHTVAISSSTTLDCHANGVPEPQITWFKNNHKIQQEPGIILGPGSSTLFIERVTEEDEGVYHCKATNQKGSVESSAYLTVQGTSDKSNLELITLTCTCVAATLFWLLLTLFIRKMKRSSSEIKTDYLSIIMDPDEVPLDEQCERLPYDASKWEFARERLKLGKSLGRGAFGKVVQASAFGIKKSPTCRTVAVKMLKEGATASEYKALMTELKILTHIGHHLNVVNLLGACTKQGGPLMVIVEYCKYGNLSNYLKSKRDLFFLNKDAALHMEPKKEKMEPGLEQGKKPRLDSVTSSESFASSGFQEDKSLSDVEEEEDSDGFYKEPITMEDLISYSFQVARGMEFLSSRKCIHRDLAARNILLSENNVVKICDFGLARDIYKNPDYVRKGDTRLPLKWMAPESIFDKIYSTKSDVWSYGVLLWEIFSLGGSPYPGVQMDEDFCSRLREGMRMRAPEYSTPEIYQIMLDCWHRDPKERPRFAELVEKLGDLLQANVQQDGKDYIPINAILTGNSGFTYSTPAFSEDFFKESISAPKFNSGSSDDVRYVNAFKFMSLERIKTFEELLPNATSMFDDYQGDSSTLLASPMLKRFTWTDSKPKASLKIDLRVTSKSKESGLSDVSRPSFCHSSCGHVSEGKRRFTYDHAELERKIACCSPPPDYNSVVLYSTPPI
Procedure: 3. […] The inhibition of the FLT1 activity is calculated and expressed as percentage of inhibition relative to the control activity determined in the absence of compound. The percentage of inhibition corresponding to each concentration of molecules is calculated thus: % inhibition=(mean CPM of the control wells−CPM of each)

VEGFR3 = VEGFR3 (Homo sapiens, UniProt P35916); assay: VEGFR3 kinase inhibition (Table 1); assay type: biochemical; settings: read-out: VEGFR3, concentration that inhibits 50% of the kinase activity
Sequence of VEGFR3 (P35916 25-1363, species assumed): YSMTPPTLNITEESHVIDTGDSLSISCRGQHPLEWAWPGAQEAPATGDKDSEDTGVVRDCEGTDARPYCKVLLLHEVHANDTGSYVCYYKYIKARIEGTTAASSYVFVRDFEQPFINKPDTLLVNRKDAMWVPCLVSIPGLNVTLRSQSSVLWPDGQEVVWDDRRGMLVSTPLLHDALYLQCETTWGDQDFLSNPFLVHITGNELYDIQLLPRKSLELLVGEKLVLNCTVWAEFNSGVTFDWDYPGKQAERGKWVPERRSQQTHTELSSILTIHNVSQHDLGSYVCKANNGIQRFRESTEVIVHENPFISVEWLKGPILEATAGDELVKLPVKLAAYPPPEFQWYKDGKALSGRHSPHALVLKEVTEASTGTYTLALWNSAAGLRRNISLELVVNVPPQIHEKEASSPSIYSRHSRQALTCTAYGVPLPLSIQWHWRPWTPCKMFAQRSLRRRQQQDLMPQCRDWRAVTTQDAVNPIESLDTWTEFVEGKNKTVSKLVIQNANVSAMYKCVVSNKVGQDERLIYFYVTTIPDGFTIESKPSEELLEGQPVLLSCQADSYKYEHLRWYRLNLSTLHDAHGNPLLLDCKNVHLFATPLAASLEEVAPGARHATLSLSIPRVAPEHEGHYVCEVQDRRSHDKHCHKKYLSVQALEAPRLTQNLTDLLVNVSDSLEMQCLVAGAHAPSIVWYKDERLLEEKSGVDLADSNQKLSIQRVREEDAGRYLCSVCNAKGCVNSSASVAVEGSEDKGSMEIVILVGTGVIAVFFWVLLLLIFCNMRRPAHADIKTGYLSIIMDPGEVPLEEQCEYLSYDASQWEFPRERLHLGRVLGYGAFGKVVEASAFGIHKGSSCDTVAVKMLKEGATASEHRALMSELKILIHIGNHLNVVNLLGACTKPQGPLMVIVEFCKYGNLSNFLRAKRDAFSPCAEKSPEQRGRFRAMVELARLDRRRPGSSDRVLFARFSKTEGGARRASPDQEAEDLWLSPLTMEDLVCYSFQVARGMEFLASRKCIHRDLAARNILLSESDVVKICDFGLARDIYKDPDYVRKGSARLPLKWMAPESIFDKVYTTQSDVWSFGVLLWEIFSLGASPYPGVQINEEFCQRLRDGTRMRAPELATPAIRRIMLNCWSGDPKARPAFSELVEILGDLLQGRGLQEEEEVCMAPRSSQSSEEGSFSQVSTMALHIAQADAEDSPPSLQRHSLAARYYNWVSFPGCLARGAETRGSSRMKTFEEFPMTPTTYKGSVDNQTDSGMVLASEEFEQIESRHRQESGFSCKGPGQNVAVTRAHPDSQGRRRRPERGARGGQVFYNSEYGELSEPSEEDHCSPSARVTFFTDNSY

[1] = PO 62 mg/kg/adm, days 4-14 (2x/d)
[2] = PO 99 mg/kg/adm, days 4-14 (2x/d)
[3] = PO 160.0 mg/kg/adm, days 4-14 (2x/d)
[4] = PO 61.5 mg/kg/adm, day 3-10 (2x/d)
[5] = PO 99.2 mg/kg/adm, day 3-10 (2x/d)

Question: What does the source list for `Cl.NC(=O)c1n[nH]cc1NCc1cc(F)cc(NC(=O)Nc2ccc(C(F)(F)F)cc2Cl)c1` [Example 1, 4-{3-[3-(2-Chloro-4-trifluoromethylphenyl)ureido]-5-fluorobenzylamino}-1H-pyrazole-3-carboxamide hydrochloride]?
Answer: Comments (B16 melanoma; PO 44 mg/kg/adm, day 4-14): Inactive; Death due to the product (day of death) (B16 melanoma; PO 44 mg/kg/adm, day 4-14, total 481 mg/kg, BCM-1948): 0/5; Average weight of the tumour in mg on day 13 (B16 melanoma; PO 44 mg/kg/adm, day 4-14): 686 mg; T/C in % day 13 (B16 melanoma; PO 44 mg/kg/adm, day 4-14): 51%; % BWC (day of low point) (B16 melanoma; PO 44 mg/kg/adm, day 4-14, low point day 15): +10.6 (15) %; Comments (B16 melanoma; [1]): Active; Total log cell kill (B16 melanoma; [1]): 2.3; Death due to the product (day of death) (B16 melanoma; PO 62 mg/kg/adm, days 4-14 (2x/d), total 1232 mg/kg, BCM-1948): 0/5; Average weight of the tumour in mg on day 13 (B16 melanoma; [1]): 128 mg; T/C in % day 13 (B16 melanoma; [1]): 10%; % BWC (day of low point) (B16 melanoma; PO 62 mg/kg/adm, days 4-14 (2x/d), low point day 5): +1.8 (5) %; T − C in days 750 mg (B16 melanoma; [1]): 6.2 days; Comments (B16 melanoma; [2]): Active; Total log cell kill (B16 melanoma; [2]): 2.3; Death due to the product (day of death) (B16 melanoma; PO 99 mg/kg/adm, days 4-14 (2x/d), total 1966 mg/kg, BCM-1948): 0/5; Average weight of the tumour in mg on day 13 (B16 melanoma; [2]): 72 mg; T/C in % day 13 (B16 melanoma; [2]): 5%; % BWC (day of low point) (B16 melanoma; PO 99 mg/kg/adm, days 4-14 (2x/d), low point day 5): −1.0 (5) %; T − C in days 750 mg (B16 melanoma; [2]): 6.2 days; Total log cell kill (B16 melanoma; [3]): 2.6; Death due to the product (day of death) (B16 melanoma; PO 160.0 mg/kg/adm, days 4-14 (2x/d), total 3178 mg/kg, BCM-1948): 0/5; Comments (B16 melanoma; PO 160.0 mg/kg/adm, days 4-14 (2x/d), HDT = highest dose tested): HDT active; Average weight of the tumour in mg on day 13 (B16 melanoma; [3]): 23 mg; T/C in % day 13 (B16 melanoma; [3]): 2%; % BWC (day of low point) (B16 melanoma; PO 160.0 mg/kg/adm, days 4-14 (2x/d), low point day 6): −2.3 (6) %; T − C in days 750 mg (B16 melanoma; [3]): 6.8 days; classification of the intrinsic clearance (human hepatocytes): intermediate (Clint<0.040 ml·h^−1·10^−6 cell: intermediate intrinsic clearance); intrinsic clearance value (human hepatocytes): 0.057 ml/hour/million of cells; inter-individual variability of intrinsic clearance (human hepatocytes): low; pIC50 (FLT1): 8.52; pIC50 (VEGFR3): 8.52

Question: `Cl.NC(=O)c1n[nH]cc1NCc1cc(F)cc(NC(=O)Nc2ccc(C(F)(F)F)cc2F)c1` [Example 2, 4-{3-[3-(2-Fluoro-4-trifluoromethylphenyl)ureido]-5-fluorobenzylamino}-1H-pyrazole-3-carboxamide hydrochloride] was tested. Which Comments (B16 melanoma; PO 44.0 mg/kg/adm, day 3-10) did it give?
Answer: Active

Question: And the “Total log cell kill” value (B16 melanoma; PO 44.0 mg/kg/adm, day 3-10)?
Answer: 1.0

Question: And the “Death due to the product (day of death)” value (B16 melanoma; PO 44.0 mg/kg/adm, day 3-10, total 352.0 mg/kg, BCM-1979)?
Answer: 0/6

Question: What about the “Average weight of the tumour in mg on day 11” value (“Average weight … on day 11” for short) (B16 melanoma; PO 44.0 mg/kg/adm, day 3-10) of the same compound?
Answer: 201 mg

Question: What about the “T/C in % day 11” value (B16 melanoma; PO 44.0 mg/kg/adm, day 3-10) of the same compound?
Answer: 27%

Question: And the “% BWC (day of low point)” value (B16 melanoma; PO 44.0 mg/kg/adm, day 3-10, low point day 11)?
Answer: +6.6 (11) %

Question: What about the “T − C in days 750 mg” value (B16 melanoma; PO 44.0 mg/kg/adm, day 3-10) of the same compound?
Answer: 3.0 days

Question: What about the Comments (B16 melanoma; [4]) of the same compound?
Answer: Active

Question: And the “Total log cell kill” value (B16 melanoma; [4])?
Answer: 1.7

Question: And the “Death due to the product (day of death)” value (B16 melanoma; PO 61.5 mg/kg/adm, day 3-10 (2x/d), total 984 mg/kg, BCM-1979)?
Answer: 0/6

Question: And the “Average weight … on day 11” value (B16 melanoma; [4])?
Answer: 46 mg

Question: And the “T/C in % day 11” value (B16 melanoma; [4])?
Answer: 6%

Question: What about the “% BWC (day of low point)” value (B16 melanoma; PO 61.5 mg/kg/adm, day 3-10 (2x/d), low point day 11) of the same compound?
Answer: +3.9 (11) %

Question: What about the “T − C in days 750 mg” value (B16 melanoma; [4]) of the same compound?
Answer: 5.0 days

Question: What about the “Total log cell kill” value (B16 melanoma; [5]) of the same compound?
Answer: 1.8

Question: What about the “Death due to the product (day of death)” value (B16 melanoma; PO 99.2 mg/kg/adm, day 3-10 (2x/d), total 1587.2 mg/kg, BCM-1979) of the same compound?
Answer: 0/6

Question: What about the Comments (B16 melanoma; PO 99.2 mg/kg/adm, day 3-10 (2x/d), HNTD = highest nontoxic dose) of the same compound?
Answer: HNTD active

Question: And the “Average weight … on day 11” value (B16 melanoma; [5])?
Answer: 0 mg

Question: What about the “T/C in % day 11” value (B16 melanoma; [5]) of the same compound?
Answer: 0%

Question: What about the “% BWC (day of low point)” value (B16 melanoma; PO 99.2 mg/kg/adm, day 3-10 (2x/d), low point day 11) of the same compound?
Answer: −8.1 (11) %

Question: What about the “T − C in days 750 mg” value (B16 melanoma; [5]) of the same compound?
Answer: 5.4 days

Question: What about the Comments (B16 melanoma; PO 160.0 mg/kg/adm, day 3-10 (2x/d)) of the same compound?
Answer: Toxic

Question: What about the “Death due to the product (day of death)” value (B16 melanoma; PO 160.0 mg/kg/adm, day 3-10 (2x/d), total 2560.0 mg/kg, BCM-1979, days of death 10, 2d11, 13, 2d14) of the same compound?
Answer: 6/6

Question: What about the “% BWC (day of low point)” value (B16 melanoma; PO 160.0 mg/kg/adm, day 3-10 (2x/d), low point day 13) of the same compound?
Answer: −26.5 (13) %

Question: What about the “classification of the intrinsic clearance” value (human hepatocytes) of the same compound?
Answer: intermediate (Clint<0.040 ml·h^−1·10^−6 cell: intermediate intrinsic clearance)

Question: What about the intrinsic clearance value (human hepatocytes) of the same compound?
Answer: 0.055 ml/h/million of cells

Question: What about the “inter-individual variability of intrinsic clearance” value (human hepatocytes) of the same compound?
Answer: low

Question: And the pIC50 (FLT1)?
Answer: 8.89
